Consider two molecules from US4510140A, “Therapeutically effective ω-(4-(2-pyridyl)-piperazino)-alkanoylanilides” (priority 1981, dated 1985).

Like-named read-outs stand apart in the source and are kept apart here.

Series [1] in a line: LD50 determined in the mouse (C. S. Weil method). Details: unit not given here. The conditions noted are these: in vivo. The source says:
Accordingly, the present invention also features pharmaceutical compositions comprising a pharmaceutically effective amount of a compound having the structural formula (I) as above-defined, or a pharmaceutically acceptable salt thereof, in admixture with conventional pharmaceutically acceptable dileunt or carrier. Suitable such carriers and unit dosage amounts will be apparent to those skilled in this art. Compare, for example, Remington's Pharmaceutical Sciences, 4th Edition (1970). The LD50 of the alkanoylanilides according to the invention was determined in the mouse, both in C. S. Weil, following the method describedBiometrics, 8, 249 (1952). The results obtained were as follows, with the designating for the active compounds corresponding to those set forth in the following specific examples: […]

Series [2] concerns bronchospasm induced by histamine. The experiment in a line: Antibronchospastic activity (Konzett and Rossler): inhibition of bronchospasm induced in anaesthetized guinea-pig by histamine. It is filed as in vivo. The conditions noted are these: Cavia porcellus, iv, 1 min, read-out: ED75 (inhibition of histamine-induced bronchospasm). The method, then:
The antibronchospastic activity was determined according to the method of Konzett and Rossler [Arch. exp. Path. Pharmakol., 195, 71 (1940)], determining the inhibition of bronchospasm induced in anaesthetized guinea-pig by histamine. For this purpose, the bronchospasms were induced by administering intravenously to the animals 0.5-2.5 μg/Kg of hystamine. Inhibition (ED75) was determined one minute after the injection of the drug under test, and the results obtained are reported in the following Table III: […]

Series [3] relates to passive cutaneous anaphylaxis. The experiment in a line: PCA Test: passive cutaneous anaphylaxis induced in the rat with homologous antibodies (Goose and Blair); inhibition of spot areas. The format is in vivo. The conditions noted are these: Rattus norvegicus, read-out: PCA Test - ED50 (inhibition of spot areas). The method, then: In order to evaluate the antianaphylactic activity of the subject novel compounds, the method of Goose and Blair was followed, in which passive cutaneous anaphylaxis was induced in the rat with homologous antibodies [Immunology, 16, 749 (1969)]. Female albino rats were immunized intramuscularly with egg albumin and intraperitoneally with Hemophylus pertussis vaccine.
Twelve days after treatment, the animals were bled and the sera thus obtained were injected intradermally into another group of rats. Twenty-four hours later, the animals were challenged with an i.v. solution of ovoalbumin and Evans blue dye, and sacrificed after 30 minutes. The test drugs were administered by different routes of administration and at different times before the challenge. Inhibition of spot areas (ED50) was determined.

A word on the ED50: it is the dose that gives a 50% effect, or the effect in half of the subjects. For `COc1cccc(N2CCN(CCC(=O)Nc3ccc(N)cc3)CC2)n1` [compound 25], the LD50 in series [1] (ip) turned out to be 0.53; in series [1] (po, os) it was 1.6. The ED75 in series [2] came out at 0.4 µmol/kg. Besides, the values for the 50% effective dose (ED50) in series [3] (ip) and in series [3] (po) were 110 µmol/kg and 55 µmol/kg, respectively.

Turning to `CCOc1ccc(NC(=O)CCN2CCN(c3ccccn3)CC2)cc1` [compound 19], the LD50 in series [1] (ip) was 0.69; in series [1] (po, os), 0.92. The ED75 in series [2] came to 0.14 µmol/kg. Further, the ED50 in series [3] (po) was found to be 54 µmol/kg.
